Test results taken from patent US11612577B2, “Biomarkers of METAP2 inhibitors and applications thereof” (SynDevRx, Inc., priority 2018, dated 2023).
Like-named read-outs stand apart in the source and are kept apart here.

Assays:
[1] = BYL-719 induced hyperglycemia in C57Bl/6 mice, ZGN-1061 pre-treatment; type: in vivo
Procedure: The following is an example showing that MetAP2 inhibitors, specifically ZGN-1061 can be used in combination with PI3K inhibitors, specifically BYL-719, to treat cancer and to attenuate treatment-induced metabolic dysfunction. In this example, male C57BI/6 mice, age 10-12 weeks, were used. The mice (n=8/treatment group) were administered doses of either vehicle control (10 mM phosphate in 5% mannitol, pH 7.2), ZGN-1061 alone, ZGN-1061 in combination with BYL-719 or BYL-719 alone, as indicated in Table 4. In Table 4, the time of dose indicates the time relative to the administration of BYL-719. Blood glucose was monitored using 10 ul of blood taken from the tail of the mice and a glucometer, starting prior to the BYL-719 administration (time 0) and then again at various times points (15, 30, 60, 90, 120 and 180 minutes) after the administration of BYL-719.

[2] = cited from earlier work
[3] = cited from earlier work; remark: listed apart in the source
[4] = requires extended intravenous administration; cited from earlier work
[5] = human, in vivo; cited from earlier work

Cc1nc(NC(=O)N2CCC[C@H]2C(N)=O)sc1-c1ccnc(C(C)(C)C(F)(F)F)c1 [BYL-719, alpelisib]
blood glucose ([1]; BYL-719 45 mg/kg PO, male C57Bl/6 mice): elicited robust hyperglycemia

CO[C@@H]1[C@H](OC(=O)/C=C/c2ccc(OCCN(C)C)cc2)CC[C@]2(CO2)[C@H]1[C@@]1(C)O[C@@H]1CC=C(C)C [CKD-732]
MTD ([2]; every fourth day schedule, confusion and insomnia): 15 mg/m2/day | body weight ([3]; C57BL/6J mice and SD rats, 5 mg/kg/day): weight loss

CO[C@@H]1[C@H](OC(=O)NC(=O)CCl)CC[C@]2(CO2)[C@H]1[C@@]1(C)O[C@@H]1CC=C(C)C [TNP-470, chloroacetylcarbamoylfumagillol]
toxicity in humans ([2]; dose-limiting neurotoxicity): too toxic for human use | MTD ([2]; in combination with paclitaxel, dosed three times per week, neuropsychiatric toxicities): 60 mg/m2 | obesity ([3]; mice, 15 or 20 mg/kg every other day): prevention of obesity | body weight ([3]; ob/ob mice, daily doses 2.5 mg/kg to 10 mg/kg): weight loss | half-life [4]: short half-life

CO[C@@H]1[C@H](OC(=O)N2CC(CCN3CCOCC3)C2)CC[C@]2(CO2)[C@H]1[C@@]1(C)O[C@@H]1CC=C(C)C [ZGN-1061]
hyperglycemia induced by BYL-719 ([1]; pre-treatment 0.5 mg/kg SC at -4 h, -24 h or -72 h (QD x3) before BYL-719 45 mg/kg PO): attenuated hyperglycemia

CO[C@@H]1[C@H](OC(=O)/C=C/C=C/C=C/C=C/C(=O)O)CC[C@]2(CO2)[C@H]1[C@@]1(C)O[C@@H]1CC=C(C)C [fumagillin]
body weight ([3]; C57BL/6 mice, oral 1 mg/kg daily): weight loss

pembrolizumab
patients with grade 3 or 4 hyperglycemia [5]: 3-6% | patients with hyperglycemic events [5]: 45-49%
